The source of these data is patent US20210308144A1 (priority 2021, published 2021).

Data set [1] has as its target T1, human aromatase enzyme (human placental microsomes) (Homo sapiens, UniProt P11511).
T1 construct: evaluated against human placental microsomes (aromatase enzyme); from tissue; host or cells: human placenta (microsomes)
T1 sequence (P11511 1-503): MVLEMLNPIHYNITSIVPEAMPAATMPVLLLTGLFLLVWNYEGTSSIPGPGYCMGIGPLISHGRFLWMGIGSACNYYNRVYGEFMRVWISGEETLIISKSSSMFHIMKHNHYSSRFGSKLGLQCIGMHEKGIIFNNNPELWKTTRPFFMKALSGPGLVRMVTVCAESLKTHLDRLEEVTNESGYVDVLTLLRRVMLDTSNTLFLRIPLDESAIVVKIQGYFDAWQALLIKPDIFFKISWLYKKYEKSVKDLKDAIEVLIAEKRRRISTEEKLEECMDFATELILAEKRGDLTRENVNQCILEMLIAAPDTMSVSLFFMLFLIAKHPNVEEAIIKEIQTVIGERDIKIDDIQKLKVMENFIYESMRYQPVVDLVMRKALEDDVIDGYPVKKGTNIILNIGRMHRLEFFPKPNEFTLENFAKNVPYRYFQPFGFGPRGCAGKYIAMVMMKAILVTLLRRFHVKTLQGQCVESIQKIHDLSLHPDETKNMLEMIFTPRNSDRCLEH
The data set is described as follows: Human placental aromatase inhibition assay. It is filed as biochemical.

For data set [2], the system named is BJ (human fibriblast) cell line. In words: Cytotoxicity against BJ (human fibroblast) cell line.
Where [3] appears, read: human placental microsomes, testosterone to 17β-estradiol conversion, UPLC, read-out: IC50 against human aromatase.

Read-outs that look alike come from different tables or passages of the source.

Broadly, the IC50 is the concentration that inhibits the measured activity by half. Consider `CC1=CC(=O)C=C2CC[C@@H]3[C@H](CC[C@]4(C)C(=O)CC[C@@H]34)[C@@]12C` [Compound 1, atamestane, reference compound], for which the IC50 in data set [1] (setting [3]) amounted to 13.8 ± 0.2 nM.
On to `CC1=CC(=O)C=C2CC[C@@H]3[C@H](CC[C@]4(C)C(=O)CC[C@@]34O)[C@@]12C` [Compound 2, 14α-hydroxy-1-methylandrosta-1,4-diene-3,17-dione], for which the IC50 in data set [1] (setting [3]) was determined as 9.7 ± 0.72 nM. Further, in data set [2], the “cytotoxicity against BJ cell line” value is reported as “non-cytotoxic”.
`CCCCCCC(=O)O[C@H]1CC[C@H]2[C@@H]3CC[C@H]4CC(=O)[C@H](C)C[C@]4(C)[C@H]3CC[C@]12C` [Compound 3, drostanolone enanthate, reference compound]: the IC50 in data set [1] (setting [3]) stood at 6.4 ± 0.06 nM.
As to `CC1=C[C@@]2(C)C(=CC1=O)CC[C@H]1[C@@H]3CC[C@H](O)[C@@]3(C)[C@H](O)C[C@@H]12` [Compound 4, 2-methylandrosta-12β,17β-dihydroxy-1,4-diene-3-one], the IC50 in data set [1] (setting [3]) was determined as 4.23 ± 0.133 nM. In data set [2], the “cytotoxicity against BJ cell line” value was “non-cytotoxic”.
In the case of `C[C@@H]1C[C@@]2(C)[C@@H](CC[C@H]3[C@@H]4CC[C@H](O)[C@@]4(C)CC[C@@]32O)CC1=O` [Compound 5, 2α-methyl-9α,17β-dihydroxy-5α-androstan-3-one], the IC50 in data set [1] (setting [3]) stood at 793 ± 29.9 nM. In data set [2], the “cytotoxicity against BJ cell line” value is on record as “non-cytotoxic”.
As for `C=C1C[C@@H]2[C@H]([C@H](O)C[C@]3(C)[C@@H](O)CC[C@@H]23)[C@@]2(C)C=CC(=O)C=C12` [Compound 8, 11α,17β-dihydroxy-6-methylene-androsta-1,4-diene-3-one], the IC50 in data set [1] was determined as 12800 ± 844 nM. Besides, the “cytotoxicity against BJ cell line” value in data set [2] is “non-cytotoxic”.
